Data: patent US7022699B2, “Cyclohexenyl phenyl diazepines vasopressin and oxytocin receptor modulators” (Wyeth, priority 2001, dated 2006)

The compounds below were run against T1, human vasopressin V1a receptor subtype (Homo sapiens, UniProt P37288) (assay: Vasopressin binding in CHO cell membranes expressing human vasopressin V1a subtype receptors ([3H]Manning ligand)). Settings: 100 nM, values without parentheses.
T1 construct: host or cells: CHO cells, stably transfected (pZeoSV vector for the Thibonnier cells); membranes
T1 sequence (P37288 whole entry): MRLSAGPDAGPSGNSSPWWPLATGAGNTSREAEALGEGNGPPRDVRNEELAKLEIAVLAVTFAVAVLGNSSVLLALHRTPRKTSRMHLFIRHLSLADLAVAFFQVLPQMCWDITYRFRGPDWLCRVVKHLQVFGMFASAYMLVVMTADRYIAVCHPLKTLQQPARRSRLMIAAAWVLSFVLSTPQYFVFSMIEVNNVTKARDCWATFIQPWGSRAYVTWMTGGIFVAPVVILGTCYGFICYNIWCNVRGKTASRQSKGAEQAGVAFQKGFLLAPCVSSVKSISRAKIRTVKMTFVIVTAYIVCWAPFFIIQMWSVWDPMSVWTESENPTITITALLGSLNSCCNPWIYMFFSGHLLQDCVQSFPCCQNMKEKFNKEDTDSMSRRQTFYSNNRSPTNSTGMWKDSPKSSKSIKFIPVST
From the text: Vasopressin Binding in Chinese Hamster Ovary Cell Membranes Expressing Human Vasopressin V1a Subtype Receptors
Chinese hamster ovary cells (CHO cells) stably transfected with the human vasopressin V1a subtype receptors were either obtained from Biosignal Inc., 1744 rue Williams, Montreal, Quebec, Canada or obtained from M. Thibonnier, Case Western Reserve University School of Medicine, Cleveland, Ohio. A. Passaging and Amplification of Cells: CHO cells transfected with the human vasopressin V1a subtype receptors obtained from M. Thibonnier (pZeoSV vector) are allowed to grow to confluency (approx. >90%) in T-150 flasks under sterile conditions, in a cell culture medium of F-12 Nutrient Mixture (HAM) with L-glutamine (Gibco Cat. #11765-054) containing 15 mM HEPES (Gibco Cat. #15630-080), 1% antibiotic/antimycotic (add 5 mL 100×, Gibco Cat. #15240-062 per 500 mL F-12), 250 μg/mL Zeocin (add 1.25 mL of 100 mg/mL Invitrogen R-250-01 per 500 mL F-12) and 10% Fetal Bovine Serum (Qualified, heat inactivated, Gibco Cat. #16140-063). The medium is removed by aspiration and the cells are washed with 10 mL of Hank's Balanced Salt solution (Gibco Cat. #14175-095). The salt solution is removed by aspiration and the cells are trypsinized with 5 mL of trypsin-EDTA (0.05% trypsin, 0.53 mM EDTA-4Na, Gibco Cat. #25300-070) for 1 min. The trypsin is removed by aspiration and the cells dislodged by tapping. Cell Culture medium (eg, 30 mL for 1:30 split) is immediately added and mixed well to inactivate trypsin. 1 mL of detached cells is added to new culture flasks containing fresh cell culture medium (eg, into 25 mL per T-150 flask), and mixed gently. The cells are incubated at 37° C. in 5% CO2. The medium is changed at 3 to 4 days interval (or as appropriate). The cells grow to confluency (approx. >75%–95%) within 7–8 days. All steps are done under sterile conditions. B. Membrane Preparation: The cells are washed twice gently with Hank's Balanced Salt solution (e.g.,. use 10 mL per T-150 flask). The excess is removed and the cells are bathed for 15–30 min. in an enzyme-free Cell Dissociation Buffer (e.g. use 8 mL Hank's Based, Gibco Cat. #13150-016 per T-150 flask) until the cells are loosened. The contents are transferred to centrifuge tubes (50 mL size) kept in ice bath. All subsequent steps are done at 4° C. The tubes are centrifuged at 300×g for 15 min (1380 rpm on SORVAL, Model RT6000D, using rotor for 50 mL tubes). The supernatant is discarded and the cells suspended in homogeneizing buffer (10 mM Tris-HCl containing 0.25 M sucrose and 1 mM EDTA, pH 7.4) ensuring that the volume of the buffer is about ten times the volume of the cell pellet. The cells are pooled into a centrifuge tube (50 mL) and homogenized with Polytron at setting 6 for 10 sec. The homogenate is transferred into a Potter-Elvjehm homogenizer and homogenized with 3 strokes. The homogenate is centrifuged at 1500×g for 10 min at 4° C. (3100 rpm using SORVAL, model RT6000D, using rotor for 50 mL tubes). The pellet is discarded. The supernatant is centrifuged at 100,000×g for 60 min. at 4° C. (Beckman L8-80M ultracentrifuge; spin at 37,500 rpm with rotor type 70 Ti for 50 mL tubes; 38,000 rpm with type 80Ti for 15 mL tubes; or 35,800 rpm with rotor type 45Ti). The supernantant is discarded and the pellet suspended in 3 to 4 mL of Tris buffer (50 mM TRIS-HCl, pH 7.4). The protein content is estimated by the Bradford or Lowry method. The volume of the membrane suspension is adjusted with the membrane buffer (50 mM Tris-HCl containing 0.1% BSA and 0.1 mM PMSF) to give 3.0 mg/mL (or as appropriate) of protein. The membranes are aliquoted and stored at −70° C. C. […]

Row | inhibition at 0.1 µM [%] | Structure (SMILES)
1 | 76 | O=C(c1ccc(C2=CC(O)CCC2)cc1)N1Cc2cccn2Cc2ccccc21 (stereo not drawn) [Example 25, (10,11-Dihydro-5H-pyrrolo[2,1-c][1,4]benzodiazepin-10-yl)-[4-(3-hydroxy-cyclohex-1-en-1-yl)-phenyl]-methanone]
2 | 27 | CC1=C(c2ccc(C(=O)N3Cc4cccn4Cc4ccccc43)cc2)CCCC1=O [Example 26, 3-[4-(10,11-Dihydro-5H-pyrrolo[2,1-c][1,4]benzodiazepine-10-carbonyl)-phenyl]-2-methyl-cyclohex-2-en-1-one]
3 | 89 | CC1=C(c2ccc(C(=O)N3Cc4cccn4Cc4ccccc43)cc2)CCCC1O (stereo not drawn) [Example 27, (10,11-Dihydro-5H-pyrrolo[2,1-c][1,4]benzodiazepin-10-yl)-[4-(3-hydroxy-2-methyl-cyclohex-1-en-1-yl)-phenyl]-methanone]
4 | 27 | Cc1cc(C(=O)N2Cc3cccn3Cc3ccccc32)ccc1C1=CCCCC1C (stereo not drawn) [Example 29, (10,11-Dihydro-5H-pyrrolo[2,1-c][1,4]benzodiazepin-10-yl)-[3-methyl-4-(6-methyl-cyclohex-1-en-1-yl)-phenyl]-methanone]
5 | 18 | Cc1cc(C(=O)N2Cc3cccn3Cc3ccccc32)ccc1C1=CCCCC1(C)C [Example 30, (10,11-Dihydro-5H-pyrrolo[2,1-c][1,4]benzodiazepin-10-yl)-[4-(6,6-dimethyl-cyclohex-1-en-1-yl)-3-methyl-phenyl]-methanone]
6 | 6 | CC1=C(c2ccc(C(=O)N3Cc4cccn4Cc4ccccc43)cc2C)C(C)CCC1 (stereo not drawn) [Example 33, (10,11-Dihydro-5H-pyrrolo[2,1-c][1,4]benzodiazepin-10-yl)-[4-(2,6-dimethyl-cyclohex-1-en-1-yl)-3-methyl-phenyl]-methanone]
7 | -5 | Cc1cc(C(=O)N2Cc3cccn3Cc3ccccc32)ccc1C1=CCCCC1C(C)(C)C (stereo not drawn) [Example 34, (10,11-Dihydro-5H-pyrrolo[2,1-c][1,4]benzodiazepin-10-yl)-[4-(6-tert-butyl-cyclohex-1-en-1-yl)-3-methyl-phenyl]-methanone]
8 | 36 | Cc1cc(C(=O)N2Cc3cccn3Cc3ccccc32)ccc1C1=CCC2CCC1C2 (stereo not drawn) [Example 35, (10,11-Dihydro-5H-pyrrolo[2,1-c][1,4]benzodiazepin-10-yl)-(4-bicyclo[3.2.1]oct-2-en-2-yl-3-methyl-phenyl)-methanone]
9 | 11 | Cc1cc(C(=O)N2Cc3cccn3Cc3ccccc32)ccc1C1=CCC2CC1C2(C)C (stereo not drawn) [Example 36, (10,11-Dihydro-5H-pyrrolo[2,1-c][1,4]benzodiazepin-10-yl)-[4-(6,6-dimethyl-bicyclo[3.1.1]hept-2-en-2-yl)-3-methyl-phenyl]-methanone]
10 | 10 | Cc1cc(C(=O)N2Cc3cccn3Cc3ccccc32)ccc1C1=CC(C)(C)CC(C)(C)C1 [Example 37, (10,11-Dihydro-5H-pyrrolo[2,1-c][1,4]benzodiazepin-10-yl)-[3-methyl-4-(3,3,5,5-tetramethyl-cyclohex-1-en-1-yl)-phenyl]-methanone]
11 | 5 | COc1cccc(C2=C(c3ccc(C(=O)N4Cc5cccn5Cc5ccccc54)cc3C)CCCC2)c1 [Example 38, (10,11-Dihydro-5H-pyrrolo[2,1-c][1,4]benzodiazepin-10-yl)-{4-[2-(3-methoxy-phenyl)-cyclohex-1-en-1-yl]-3-methyl-phenyl}-methanone]
12 | 48 | Cc1cc(C(=O)N2Cc3cccn3Cc3ccccc32)ccc1C1=CC(=O)CCC1 [Example 39, 3-[4-(10,11-Dihydro-5H-pyrrolo[2,1-c][1,4]benzodiazepine-10-carbonyl)-2-methyl-phenyl]-cyclohex-2-en-1-one]
13 | 91 | Cc1cc(C(=O)N2Cc3cccn3Cc3ccccc32)ccc1C1=CC(O)CCC1 (stereo not drawn) [Example 40, (10,11-Dihydro-5H-pyrrolo[2,1-c][1,4]benzodiazepin-10-yl)-[4-(3-hydroxy-cyclohex-1-en-1-yl)-3-methyl-phenyl]-methanone]
14 | 85 | CO[C@@H]1CCCC(c2ccc(C(=O)N3Cc4cccn4Cc4ccccc43)cc2C)=C1C [Example 44, 10-{4-[(3R)-3-Methoxy-2-methylcyclohex-1-en-1-yl]-3-methylbenzoyl}-10,11-dihydro-5H-pyrrolo[2,1-c][1,4]benzodiazepine]
15 | 50 | CC1=C(c2ccc(C(=O)N3Cc4cccn4Cc4ccccc43)cc2C)CCCC1N (stereo not drawn) [Example 45, [4-(3-Amino-2-methyl-cyclohex-1-en-1-yl)-3-methyl-phenyl]-(10,11-dihydro-5H-pyrrolo[2,1-c][1,4]benzodiazepin-10-yl)-methanone]
